In patent US11377448B2, “Crystalline sodium salt of 5-methyl-(6S)-tetrahydrofolic acid” (priority 2017, dated 2022):

What was measured:
[1] = purified/de-ionized water, room temperature, agitated and briefly sonicated
Protocol: The measurement of the kinetic solubility was conducted as described in the experimental part.
50 mg of crystalline sodium salt of 5-methyl-(6S)-tetrahydrofolic acid (according to Example 1) is weighed into a 4 ml glass vial with screw cap. Then 0.5 ml of purified/de-ionized water is added.
2.535 ml of purified/de-ionized water is added to the solid using an adjustable volumetric pipette. The mixture is vigorously agitated at room temperature and briefly sonicated.

[2] = Long-term stability at 25° C./60% rh, content by HPLC; conditions: for 5-methyl-(6S)-tetrahydrofolic acid (% w/w) / Pyrazino-s-triazine derivative of 4α-hydroxy-5-methyl-THF (MeFox) (% w/w) / 5-methyl-(6S)-tetrahydrofolic acid (% rel.): 25° C./60% rh; for Pyrazino-s-triazine derivative of 4α-hydroxy-5-methyl-THF (MeFox) (% w/w): major degradation product; for 5-methyl-(6S)-tetrahydrofolic acid (% rel.): relative to initial value
Protocol: (§1) Amorphous monosodium salt of 5-methyl-(6S)-tetrahydrofolic acid prepared according to Reference Example 6, crystalline calcium salt of 5-methyl-(6S)-tetrahydrofolic acid, prepared according to literature procedures (EP 1 044 975 B1) and crystalline sodium salt of 5-methyl-(6S)-tetrahydrofolic acid, prepared as disclosed in Example 1, were stored at 25° C./60% rh. The content of 5-methyl-(6S)-tetrahydrofolic acid remaining in the samples was measured by HPLC at periodic intervals (% w/w). The content of 5-methyl-(6S)-tetrahydrofolic acid remaining was also compared to the initial value at the time of preparation (% rel.). Additionally the content of the pyrazino-s-triazine derivative of 4α-hydroxy-5-methyl-THF (MeFox), a major degradation product, was measured by HPLC at periodic intervals and disclosed as absolute values (% w/w).

[3] = Long-term stability at 40° C./75% rh, content by HPLC; format: physicochemical; conditions: for Pyrazino-s-triazine derivative of 4α-hydroxy-5-methyl-THF (MeFox) (% w/w): major degradation product; for 5-methyl-(6S)-tetrahydrofolic acid (% rel.): relative to initial value
Protocol: as §1, with “40° C./75%” for “25° C./60%”, “sample” for “samples”

Compound | solubility (kinetic solubility) in water [1] | 5-methyl-(6S)-tetrahydrofolic acid (% w/w) ([2]; 0 months) | Pyrazino-s-triazine derivative of 4α-hydroxy-5-methyl-THF (MeFox) (% w/w) ([2]; 0 months) | 5-methyl-(6S)-tetrahydrofolic acid (% rel.) ([2]; 0 months) | 5-methyl-(6S)-tetrahydrofolic acid (% w/w) ([2]; 3 months) | Pyrazino-s-triazine derivative of 4α-hydroxy-5-methyl-THF (MeFox) (% w/w) ([2]; 3 months) | 5-methyl-(6S)-tetrahydrofolic acid (% rel.) ([2]; 3 months) | 5-methyl-(6S)-tetrahydrofolic acid (% w/w) ([2]; 6 months) | Pyrazino-s-triazine derivative of 4α-hydroxy-5-methyl-THF (MeFox) (% w/w) ([2]; 6 months) | 5-methyl-(6S)-tetrahydrofolic acid (% rel.) ([2]; 6 months) | 5-methyl-(6S)-tetrahydrofolic acid (% w/w) ([2]; 9 months) | Pyrazino-s-triazine derivative of 4α-hydroxy-5-methyl-THF (MeFox) (% w/w) ([2]; 9 months) | 5-methyl-(6S)-tetrahydrofolic acid (% rel.) ([2]; 9 months) | 5-methyl-(6S)-tetrahydrofolic acid (% w/w) ([3]; 0 months) | Pyrazino-s-triazine derivative of 4α-hydroxy-5-methyl-THF (MeFox) (% w/w) ([3]; 0 months) | 5-methyl-(6S)-tetrahydrofolic acid (% rel.) ([3]; 0 months) | 5-methyl-(6S)-tetrahydrofolic acid (% w/w) ([3]; 3 months) | Pyrazino-s-triazine derivative of 4α-hydroxy-5-methyl-THF (MeFox) (% w/w) ([3]; 3 months) | 5-methyl-(6S)-tetrahydrofolic acid (% rel.) ([3]; 3 months) | 5-methyl-(6S)-tetrahydrofolic acid (% w/w) ([3]; 6 months) | also measured
CN1c2c([nH]c(N)nc2=O)NC[C@@H]1CNc1ccc(C(=O)N[C@@H](CCC(=O)[O-])C(=O)[O-])cc1.[Ca+2] [calcium salt of 5-methyl-(6S)-tetrahydrofolic acid] | smaller than 10 mg per 1 ml of water | 80.7 | 0.20 | 100.0 | 79.0 | 0.84 | 97.9 | 77.7 | 0.90 | 96.3 | 78.5 | 0.85 | 97.3 | 80.7 | 0.20 | 100.0 | 78.5 | 1.01 | 97.2 | 78.0 | 5-methyl-(6S)-tetrahydrofolic acid (% w/w) ([2]; 12 months): 77.9 % w/w; Pyrazino-s-triazine derivative of 4α-hydroxy-5-methyl-THF (MeFox) (% w/w) ([2]; 12 months): 0.86 % w/w; 5-methyl-(6S)-tetrahydrofolic acid (% rel.) ([2]; 12 months): 96.5 % rel.; Pyrazino-s-triazine derivative of 4α-hydroxy-5-methyl-THF (MeFox) (% w/w) ([3]; 6 months): 0.96 % w/w; 5-methyl-(6S)-tetrahydrofolic acid (% rel.) ([3]; 6 months): 96.6 % rel.; 5-methyl-(6S)-tetrahydrofolic acid (% w/w) ([3]; 9 months): 78.8 % w/w; Pyrazino-s-triazine derivative of 4α-hydroxy-5-methyl-THF (MeFox) (% w/w) ([3]; 9 months): 0.93 % w/w; 5-methyl-(6S)-tetrahydrofolic acid (% rel.) ([3]; 9 months): 97.6 % rel.; 5-methyl-(6S)-tetrahydrofolic acid (% w/w) ([3]; 12 months): 77.8 % w/w; Pyrazino-s-triazine derivative of 4α-hydroxy-5-methyl-THF (MeFox) (% w/w) ([3]; 12 months): 0.95 % w/w; 5-methyl-(6S)-tetrahydrofolic acid (% rel.) ([3]; 12 months): 96.3 % rel.
CN1c2c(nc(N)[nH]c2=O)NC[C@@H]1CNc1ccc(C(=O)N[C@@H](CCC(=O)[O-])C(=O)[O-])cc1.[Na+].[Na+] [sodium salt of 5-methyl-(6S)-tetrahydrofolic acid] | greater than 100 mg per 1 ml of water | 82.3 | 0.07 | 100.0 | 80.0 | 1.01 | 97.3 | 78.6 | 1.31 | 95.5 | 74.7 | 1.42 | 90.8 | 82.3 | 0.07 | 100.0 | 78.6 | 1.52 | 95.6 | 77.3 | stability over a long period of time compared to the crystalline calcium salt ([2]; summary of Tables 1 to 4 (25° C./60% rh and 40° C./75% rh)): comparable stability; Pyrazino-s-triazine derivative of 4α-hydroxy-5-methyl-THF (MeFox) (% w/w) ([3]; 6 months): 1.69 % w/w; 5-methyl-(6S)-tetrahydrofolic acid (% rel.) ([3]; 6 months): 94.0 % rel.; 5-methyl-(6S)-tetrahydrofolic acid (% w/w) ([3]; 9 months): 77.9 % w/w; Pyrazino-s-triazine derivative of 4α-hydroxy-5-methyl-THF (MeFox) (% w/w) ([3]; 9 months): 1.51 % w/w; 5-methyl-(6S)-tetrahydrofolic acid (% rel.) ([3]; 9 months): 94.7 % rel.
CN1c2c(nc(N)[nH]c2=O)NC[C@@H]1CNc1ccc(C(=O)N[C@@H](CCC(=O)[O-])C(=O)O)cc1.[Na+] [5-methyl-(6S)-tetrahydrofolic acid monosodium salt] |  | 84.9 | 0.43 | 100.0 | 60.6 | 2.60 | 71.3 | 63.2 | 2.75 | 74.5 |  |  |  | 84.9 | 0.43 | 100.0 | 61.6 | 2.79 | 72.6 |  | 
